Assay results as given in publication PMC3961306, “Comparison of the Cancer Gene Targeting and Biochemical Selectivities of All Targeted Kinase Inhibitors Approved for Clinical Use” (PLoS ONE, 2014).
Where two headings read alike, the source gives them in different places.

Tests used:
[1] = test system: forty-four human cancer cell lines; assay: Cell proliferation assay (ATPlite, 72 hours) in the 44 cell line Oncolines panel; assay type: cell-based; conditions: Homo sapiens
[2] = target: panel of more than 300 wild-type and mutant kinases (313 kinase panel) (Homo sapiens, UniProt P51617); assay: Kinase profiling in a biochemical assay panel (mobility shift assays and ELISA), %-inhibition at 1 μM; selectivity entropy; conditions: kinase IRAK1; compound at 1 μM
[3] = target: panel of more than 300 wild-type and mutant kinases (313 kinase panel) (Homo sapiens, UniProt P51451); assay: as above; conditions: kinase BLK; 1 μM compound
[4] = target: panel of more than 300 wild-type and mutant kinases (313 kinase panel) (Homo sapiens, UniProt P42684); assay: as above; conditions: kinase ARG; 1 μM compound
[5] = target: T1, panel of more than 300 wild-type and mutant kinases (313 kinase panel) (Homo sapiens, UniProt P00540); assay: as above; conditions: kinase MOS; 1 μM
T1 sequence (P00540 1-346): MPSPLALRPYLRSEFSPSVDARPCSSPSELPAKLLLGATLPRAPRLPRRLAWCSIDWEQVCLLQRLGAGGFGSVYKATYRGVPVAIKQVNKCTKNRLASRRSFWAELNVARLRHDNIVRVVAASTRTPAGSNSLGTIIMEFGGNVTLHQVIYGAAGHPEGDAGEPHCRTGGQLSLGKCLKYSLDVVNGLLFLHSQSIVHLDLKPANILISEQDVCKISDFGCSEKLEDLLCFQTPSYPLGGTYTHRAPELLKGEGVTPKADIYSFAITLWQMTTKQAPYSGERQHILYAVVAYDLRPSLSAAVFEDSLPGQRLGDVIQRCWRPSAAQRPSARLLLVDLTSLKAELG

[6] = target: panel of more than 300 wild-type and mutant kinases (313 kinase panel) (Homo sapiens, UniProt P11362, V561M); assay: as above; conditions: kinase FGFR1(V561M); compound at 1 μM

What does the source list for `CC(C)(C)c1nc(-c2cccc(NS(=O)(=O)c3c(F)cccc3F)c2F)c(-c2ccnc(N)n2)s1` [dabrafenib]?
IC50 ([1]; A 172, read-out: cell panel IC50, A-172): 3.5 µM; IC50 ([1]; A204, cell line A-204, read-out: cell panel IC50, A-204): 4.69 µM; IC50 ([1]; A498, read-out: cell panel IC50, A-498): 2.28 µM; IC50 ([1]; A549, read-out: cell panel IC50, A-549): 4.12 µM; IC50 ([1]; A-375, cell line A375, read-out: cell panel IC50, A375): 0.026 µM; IC50 ([1]; A-427, read-out: cell panel IC50, A-427): 3.45 µM; IC50 ([1]; AU565, read-out: cell panel IC50, AU-565): 5.92 µM; IC50 ([1]; BT-549, read-out: cell panel IC50, BT-549): 5.73 µM; IC50 ([1]; HCT-116, read-out: cell panel IC50, HCT-116): 0.85 µM; IC50 ([1]; K562, read-out: cell panel IC50, K-562): 13.5 µM; IC50 ([1]; LS174T, read-out: cell panel IC50, LS 174T): > 31.6 µM; IC50 ([1]; SHP77, cell line SHP-77, read-out: cell panel IC50, SHP-77): 28.9 µM; IC50 ([1]; SW-620, cell line SW620, read-out: cell panel IC50, SW620): 2.47 µM; IC50 ([1]; U2OS, cell line U-2 OS, read-out: cell panel IC50, U-2 OS): > 31.6 µM; IC50 ([1]; cell line J82, read-out: cell panel IC50, J82): > 31.6 µM; IC50 ([1]; cell line PA-1, read-out: cell panel IC50, PA-1): 2.11 µM; IC50 ([1]; cell line SJCRH30, read-out: cell panel IC50, SJCRH30): > 31.6 µM; IC50 ([1]; cell line SR, read-out: cell panel IC50, SR): 2.12 µM; IC50 ([1]; U-87 MG cell line, ATPlite, 72 hours, read-out: IC50 in cell proliferation assay (table S5 cellpanel data)): > 31.6 µM; IC50 ([1]; cell line 769-P, read-out: cell panel IC50, 769-P): 10.9 µM; IC50 ([1]; cell line 786-0, read-out: cell panel IC50, 786-0): 3.3 µM; IC50 ([1]; cell line ACHN, read-out: cell panel IC50, ACHN): 1.15 µM; IC50 ([1]; cell line AN3 CA, read-out: cell panel IC50, AN3 CA): > 31.6 µM; IC50 ([1]; cell line BT-20, read-out: cell panel IC50, BT-20): > 31.6 µM; IC50 ([1]; cell line BxPC-3, read-out: cell panel IC50, BxPC-3): 2.68 µM; IC50 ([1]; cell line C-33 A, read-out: cell panel IC50, C-33 A): 3.31 µM; IC50 ([1]; cell line CAL 27, read-out: cell panel IC50, CAL 27): 30.8 µM; IC50 ([1]; cell line CCRF-CEM, read-out: cell panel IC50, CCRF-CEM): > 31.6 µM; IC50 ([1]; cell line DLD-1, read-out: cell panel IC50, DLD-1): 3.92 µM; IC50 ([1]; cell line FaDu, read-out: cell panel IC50, FaDu): 4.38 µM; IC50 ([1]; cell line HCT-15, read-out: cell panel IC50, HCT-15): 3.33 µM; IC50 ([1]; cell line Hs 578T, read-out: cell panel IC50, Hs 578T): 11.5 µM; IC50 ([1]; cell line Jurkat E6.1, read-out: cell panel IC50, Jurkat E6.1): 3.12 µM; IC50 ([1]; cell line LoVo, read-out: cell panel IC50, LoVo): 1.86 µM; IC50 ([1]; cell line MG-63, read-out: cell panel IC50, MG-63): > 31.6 µM; IC50 ([1]; cell line MOLT-4, read-out: cell panel IC50, MOLT-4): 29.1 µM; IC50 ([1]; cell line MeWo, read-out: cell panel IC50, MeWo): 6.49 µM; IC50 ([1]; cell line NCI-H82, read-out: cell panel IC50, NCI-H82): 2.54 µM; IC50 ([1]; cell line NCI-H460, read-out: cell panel IC50, NCI-H460): 2.98 µM; IC50 ([1]; cell line OVCAR-3, read-out: cell panel IC50, OVCAR-3): 5.26 µM; IC50 ([1]; cell line RPMI-7951, read-out: cell panel IC50, RPMI-7951): 0.024 µM; IC50 ([1]; cell line SK-N-AS, read-out: cell panel IC50, SK-N-AS): 3.55 µM; IC50 ([1]; cell line SW48, read-out: cell panel IC50, SW48): 10.6 µM; IC50 ([1]; cell line SW480, read-out: cell panel IC50, SW480): 16.6 µM; %-inhibition of IRAK1 [2]: -48%; %-inhibition, BLK [3]: 80%; %-inhibition, ARG [4]: 54%; %-inhibition of MOS [5]: -12%; %-inhibition of FGFR1(V561M) [6]: -0.282%
